Publication PMC6323060, “Expression in eukaryotic cells and purification of synthetic gene encoding enterocin P: a bacteriocin with broad antimicrobial spectrum” (AMB Express, 2019)
Values after ≈ are worked out from the molar mass of the structure shown. Ends that are not written are not given here.

Columns and labels:
[1] = test system: Shigella dysenteriae; assay: MIC, broth micro-dilution (CLSI); type: cell-based; conditions: for MIC: Shigella dysenteriae, read-out: Antimicrobial activity MIC
[2] = test system: Klebsiella pneumonia ATCC 700603; assay: MIC, broth micro-dilution (CLSI); conditions: for MIC: Klebsiella pneumoniae, ATCC700603, read-out: Antimicrobial activity MIC
[3] = test system: Staphylococcus aureus ATCC 29213; assay: MIC, broth micro-dilution (CLSI); conditions: for MIC: Staphylococcus aureus, ATCC29213, read-out: Antimicrobial activity MIC
[4] = test system: Salmonella typhi; assay: MIC, broth micro-dilution (CLSI); type: cell-based; conditions: Salmonella typhi clinical isolate, MHB, approx. 5 × 10^5 CFU/ml, overnight 37 °C, triplicate; for MIC: Salmonella enterica, read-out: Antimicrobial activity MIC
[5] = test system: Listeria monocytogenes; assay: MIC, broth micro-dilution (CLSI); conditions: for MIC: Listeria monocytogenes, read-out: Antimicrobial activity MIC
[6] = test system: Enterococcus faecalis ATCC 29212; assay: MIC, broth micro-dilution (CLSI); conditions: for MIC: Enterococcus faecalis, ATCC29212, read-out: Antimicrobial activity MIC
[7] = test system: E. coli ATCC 25922; assay: MIC, broth micro-dilution (CLSI); conditions: Escherichia coli, ATCC25922, read-out: Antimicrobial activity MIC
[8] = test system: Staphylococcus aureus ATCC 25923; assay: MIC, broth micro-dilution (CLSI); conditions: for MIC: Staphylococcus aureus, ATCC25923, read-out: Antimicrobial activity MIC
[9] = test system: Salmonella paratyphi C; assay: MIC, broth micro-dilution (CLSI); type: cell-based; conditions: Salmonella enterica, read-out: Antimicrobial activity MIC
[10] = test system: MRSA ATCC 33591; assay: MIC, broth micro-dilution (CLSI); conditions: for MIC: Staphylococcus aureus, read-out: Antimicrobial activity MIC
[11] = test system: Acinetobacter baumannii ATCC 13304; assay: MIC, broth micro-dilution (CLSI); conditions: ATCC13304, read-out: Antimicrobial activity MIC
[12] = test system: Pseudomonas aeruginosa ATCC 27853; assay: MIC, broth micro-dilution (CLSI); conditions: for MIC: Pseudomonas aeruginosa, ATCC27853, read-out: Antimicrobial activity MIC
[13] = test system: Pseudomonas aeruginosa VIM+; assay: MIC, broth micro-dilution (CLSI); conditions: for MIC: Pseudomonas aeruginosa, read-out: Antimicrobial activity MIC
[14] = test system: VRE; assay: MIC, broth micro-dilution (CLSI); conditions: for MIC: Enterococcus, VRE, read-out: Antimicrobial activity MIC
[15] = test system: E. coli (ATCC 25922); assay: Effect of salt (NaCl) on antimicrobial activity; type: cell-based, Escherichia coli; set-up: key: +: presence of activity; −: absence of activity; conditions: 4 h, CFU counted after 24 h at 37 °C, triplicate
Method: (§1) To investigate the activities of the EntP peptide in the presence of high salt concentrations, the MIC was determined as described above, except that fixed concentration of NaCl was added to each well of the microtiter plate. Overnight cultures of S. aureus (ATCC 25923) and E. coli (ATCC 25922) as Gram-positive and Gram-negative model strains were incubated in MHB with 0, 50, 100, or 150 mM NaCl for 4 h. Bacteria were serially diluted and plated in triplicate on Trypticase soy agar (HiMedia, India) plates. CFUs were counted after 24 h of incubation at 37 °C. The stability of EntP peptide in 50% human plasma was evaluated as previously described (Hou et al. [2011]). The human plasma was determined to contain no antimicrobial activity before the test. Then 800 μg/ml of recombinant EntP peptide was diluted 1:1 with fresh human plasma and incubated at 37 °C for 0, 3, or 6 h. After incubation, the antimicrobial activity of each sample was determined by MIC assays with S. aureus (ATCC 25923) and E. coli (ATCC 25922).

[16] = test system: S. aureus (ATCC 25923) and E. coli (ATCC 25922); assay: Antimicrobial activity in 50% human plasma, overall statement; type: in vitro ADME; conditions: 37 °C, 0, 3 or 6 h, read-out MIC assay
Method: as §1

[17] = test system: E. coli (ATCC 25922); assay: Stability in 50% human plasma, read out as antimicrobial activity (MIC assay); type: in vitro ADME, Escherichia coli; set-up: key: +: presence of activity; −: absence of activity; conditions: 800 μg/ml peptide diluted 1:1 with fresh human plasma (50%), 37 °C
Method: as §1

[18] = test system: S. aureus (ATCC 25923); assay: as above; type: in vitro ADME, Staphylococcus aureus; set-up: key: +: presence of activity; −: absence of activity; conditions: 800 μg/ml peptide diluted 1:1 with fresh human plasma (50%), 37 °C
Method: as §1

[19] = test system: S. aureus (ATCC 25923); assay: Effect of salt (NaCl) on antimicrobial activity; type: cell-based, Staphylococcus aureus; set-up: key: +: presence of activity; −: absence of activity; conditions: 4 h, CFU counted after 24 h at 37 °C, triplicate
Method: as §1

Compound: CC1(C)S[C@@H]2[C@H](NC(=O)[C@H](N)c3ccccc3)C(=O)N2[C@H]1C(=O)O [Ampicillin]
- MIC [1]: 4 µg/mL (≈ 11.4 µM)
- MIC [2]: > 128 µg/mL
- MIC [3]: ≤ 1 µg/mL
- MIC [4]: 2 µg/mL (≈ 5.72 µM)
- MIC [5]: 2 µg/mL (≈ 5.72 µM)
- MIC [6]: ≤ 1 µg/mL
- MIC [7]: ≤ 2 µg/mL
- MIC [8]: ≤ 1 µg/mL
- MIC [9]: 2 µg/mL (≈ 5.72 µM)

Compound: CC(C)(O/N=C(\C(=O)N[C@@H]1C(=O)N2C(C(=O)[O-])=C(C[n+]3ccccc3)CS[C@H]12)c1csc(N)n1)C(=O)O [Ceftazidime]
- MIC [10]: 16 µg/mL (≈ 29.3 µM)
- MIC [11]: ≥ 32 µg/mL
- MIC [1]: ≤ 2 µg/mL
- MIC [2]: ≥ 16 µg/mL
- MIC [12]: 2 µg/mL (≈ 3.66 µM)
- MIC [13]: ≥ 32 µg/mL
- MIC [3]: ≤ 2 µg/mL
- MIC [14]: 32 µg/mL (≈ 58.5 µM)
- MIC [4]: 4 µg/mL (≈ 7.32 µM)
- MIC [5]: ≤ 4 µg/mL
- MIC [6]: ≤ 4 µg/mL
- MIC [7]: ≤ 2 µg/mL
- MIC [8]: ≤ 2 µg/mL
- MIC [9]: 4 µg/mL (≈ 7.32 µM)

Compound: CNC(C)C1CCC(N)C(OC2C(N)CC(N)C(OC3OCC(C)(O)C(NC)C3O)C2O)O1 (stereo not drawn) [Gentamicin]
- MIC [10]: ≥ 16 µg/mL
- MIC [11]: ≥ 16 µg/mL
- MIC [1]: 4 µg/mL (≈ 8.38 µM)
- MIC [2]: ≥ 16 µg/mL
- MIC [12]: ≤ 16 µg/mL
- MIC [13]: ≥ 16 µg/mL
- MIC [3]: ≤ 1 µg/mL
- MIC [14]: ≥ 16 µg/mL
- MIC [4]: ≤ 2 µg/mL
- MIC [5]: 8 µg/mL (≈ 16.8 µM)
- MIC [6]: ≤ 1 µg/mL
- MIC [7]: ≤ 1 µg/mL
- MIC [8]: ≤ 1 µg/mL
- MIC [9]: ≤ 1 µg/mL

Compound: CCN1CCN(C(=O)N[C@@H](C(=O)N[C@@H]2C(=O)N3[C@@H]2SC(C)(C)[C@@H]3C(=O)O)c2ccccc2)C(=O)C1=O [Piperacillin]
- MIC [11]: ≥ 64 µg/mL
- MIC [1]: 4 µg/mL (≈ 7.73 µM)
- MIC [2]: ≥ 128 µg/mL
- MIC [12]: ≤ 8 µg/mL
- MIC [13]: ≥ 128 µg/mL
- MIC [4]: 4 µg/mL (≈ 7.73 µM)
- MIC [5]: 4 µg/mL (≈ 7.73 µM)
- MIC [7]: ≤ 8 µg/mL
- MIC [9]: ≤ 8 µg/mL

Compound: CN[C@H](CC(C)C)C(=O)N[C@H]1C(=O)N[C@@H](CC(N)=O)C(=O)N[C@H]2C(=O)N[C@H]3C(=O)N[C@H](C(=O)N[C@H](C(=O)O)c4cc(O)cc(O)c4-c4cc3ccc4O)[C@H](O)c3ccc(c(Cl)c3)Oc3cc2cc(c3O[C@@H]2O[C@H](CO)[C@@H](O)[C@H](O)[C@H]2O[C@H]2C[C@](C)(N)[C@H](O)[C@H](C)O2)Oc2ccc(cc2Cl)[C@H]1O [Vancomycin]
- MIC [10]: ≥ 16 µg/mL
- MIC [3]: ≤ 1 µg/mL
- MIC [14]: ≥ 32 µg/mL
- MIC [5]: 1 µg/mL (≈ 0.69 µM)
- MIC [6]: ≤ 1 µg/mL
- MIC [8]: ≤ 1 µg/mL

Compound: enterocin P (ATRSYGNGVYCNNSKCWVNWGEAKENIAGIVISGWASGLAGMGH-{H2N-H2N-H2N-H2N-H2N-H2N}; ends and bridges not checked; UniProt O30434 28-71, looked up) [EntP]
- Antimicrobial activity MIC ([10]; MRSA ATCC 33591 (resistant strain), broth micro-dilution (CLSI), MHB, approx. 5 × 10^5 CFU/ml, overnight 37 °C, triplicate): 64 µg/mL
- Antimicrobial activity MIC ([1]; Shigella dysenteriae clinical isolate, broth micro-dilution (CLSI), MHB, approx. 5 × 10^5 CFU/ml, overnight 37 °C, triplicate): 128 µg/mL
- Activity after treatment with salt ([15]; 0 mM NaCl in MHB): +
- Activity after treatment with salt ([15]; 50 mM NaCl in MHB): +
- Activity after treatment with salt ([15]; 100 mM NaCl in MHB): +
- Activity after treatment with salt ([15]; 150 mM NaCl in MHB): −
- Antimicrobial activity MIC ([2]; Klebsiella pneumonia ATCC 700603 (resistant strain), broth micro-dilution (CLSI), MHB, approx. 5 × 10^5 CFU/ml, overnight 37 °C, triplicate): 8 µg/mL
- Antimicrobial activity MIC ([12]; Pseudomonas aeruginosa ATCC 27853, broth micro-dilution (CLSI), MHB, approx. 5 × 10^5 CFU/ml, overnight 37 °C, triplicate): 8 µg/mL
- Antimicrobial activity MIC ([13]; Pseudomonas aeruginosa VIM+ (resistant strain), broth micro-dilution (CLSI), MHB, approx. 5 × 10^5 CFU/ml, overnight 37 °C, triplicate): 256 µg/mL
- Antimicrobial activity MIC ([3]; Staphylococcus aureus ATCC 29213, broth micro-dilution (CLSI), MHB, approx. 5 × 10^5 CFU/ml, overnight 37 °C, triplicate): 8 µg/mL
- Antimicrobial activity in 50% human plasma compared with PBS [16]: not significantly different from that in PBS
- Antimicrobial activity MIC ([14]; VRE clinical isolate (resistant strain), broth micro-dilution (CLSI), MHB, approx. 5 × 10^5 CFU/ml, overnight 37 °C, triplicate): 64 µg/mL
- Activity after treatment with plasma ([17]; 0 h): +
- Activity after treatment with plasma ([17]; 3 h): +
- Activity after treatment with plasma ([17]; 6 h): +
- Antimicrobial activity MIC [4]: 16 µg/mL
- Antimicrobial activity MIC ([5]; Listeria monocytogenes clinical isolate, broth micro-dilution (CLSI), MHB, approx. 5 × 10^5 CFU/ml, overnight 37 °C, triplicate): 32 µg/mL
- Activity after treatment with plasma ([18]; 0 h): +
- Activity after treatment with plasma ([18]; 3 h): +
- Activity after treatment with plasma ([18]; 6 h): +
- Antimicrobial activity MIC ([6]; Enterococcus faecalis ATCC 29212, broth micro-dilution (CLSI), MHB, approx. 5 × 10^5 CFU/ml, overnight 37 °C, triplicate): 16 µg/mL
- Activity after treatment with salt ([19]; 0 mM NaCl in MHB): +
- Activity after treatment with salt ([19]; 50 mM NaCl in MHB): +
- Activity after treatment with salt ([19]; 100 mM NaCl in MHB): +
- Activity after treatment with salt ([19]; 150 mM NaCl in MHB): −
- Antimicrobial activity MIC ([8]; Staphylococcus aureus ATCC 25923, broth micro-dilution (CLSI), MHB, approx. 5 × 10^5 CFU/ml, overnight 37 °C, triplicate): 8 µg/mL
